Results reported in the NIST ThermoML archive (doi:10.1021/je7004402).
± gives the expanded uncertainty stated by the source.

Experiments:
[1] = refractive index (Na D-line) (dimensionless); details: 298.15 K; 101.33 kPa; Liquid; Standard Abbe refractometry
[2] = Liquid; Ebulliometric method (Recirculating still)

Row | Compound | refractive index [1] | Normal boiling temperature [2] [°C]
1 | CCOC=O [ethyl methanoate] | 1.35901 ± 0.00063 | 54.17 ± 0.2
2 | CC(C)c1ccccc1 [isopropylbenzene] | 1.48829 ± 0.00053 | 152.29 ± 0.2
3 | C=COC(C)=O [vinyl acetate] | 1.39236 ± 0.00053 | 72.80 ± 0.2
